Reference: ChEMBL document CHEMBL5380795, “Design, Synthesis, and Bioactivity Investigation of Cyclic Lipopeptide Antibiotics Containing Eight to Nine Amino Acids” (J Med Chem, 2023)
Values after ≈ are worked out from the molar mass of the structure shown. Bridge positions count the residues as written; N and C are the ends. Square brackets hold non-standard residues; d marks the D form. Peptide text beside a SMILES is read from it. * marks the point of attachment. Decanoyl(3R-OH) = CCCCCCC[C@@H](O)CC(=O)*; dDab = NCC[C@@H](N)C(=O)O; Dab = NCC[C@H](N)C(=O)O

What was measured:
[1] = tested on: Staphylococcus aureus; assay: Antibacterial activity against methicillin resistant Staphylococcus aureus ATCC 33591 assessed as inhibition of bacterial growth incubated for 18 to 24 hrs by broth microdilution method; format: functional; conditions: time 18-24 hrs
[2] = tested on: Staphylococcus aureus; assay: Antibacterial activity against Staphylococcus aureus ATCC 29213 assessed as inhibition of bacterial growth incubated for 18 to 24 hrs by broth microdilution method; format: functional; conditions: time 18-24 hrs
[3] = tested on: Staphylococcus epidermidis; assay: Antibacterial activity against methicillin resistant Staphylococcus epidermidis clinical isolate 19-5 assessed as inhibition of bacterial growth incubated for 18 to 24 hrs by broth microdilution method; format: functional; conditions: time 18-24 hrs
[4] = tested on: Staphylococcus epidermidis; assay: Antibacterial activity against methicillin resistant Staphylococcus epidermidis clinical isolate 19-6 assessed as inhibition of bacterial growth incubated for 18 to 24 hrs by broth microdilution method; format: functional; conditions: time 18-24 hrs
[5] = tested on: Escherichia coli; assay: Antibacterial activity against Escherichia coli ATCC BAA-2523 assessed as inhibition of bacterial growth incubated for 18 to 24 hrs by broth microdilution method; format: functional; conditions: time 18-24 hrs
[6] = tested on: Escherichia coli; assay: Antibacterial activity against Escherichia coli NCTC 13353 assessed as inhibition of bacterial growth incubated for 18 to 24 hrs by broth microdilution method; format: functional; conditions: time 18-24 hrs
[7] = tested on: Escherichia coli; assay: Antibacterial activity against Escherichia coli clinical isolate 19-2 assessed as inhibition of bacterial growth incubated for 18 to 24 hrs by broth microdilution method; format: functional; conditions: time 18-24 hrs
[8] = tested on: Escherichia coli; assay: Antibacterial activity against KPC producing Escherichia coli ATCC BAA-2340 assessed as inhibition of bacterial growth incubated for 18 to 24 hrs by broth microdilution method; format: functional; conditions: time 18-24 hrs
[9] = tested on: Klebsiella pneumoniae; assay: Antibacterial activity against carbapenem resistant Klebsiella pneumoniae clinical isolate 19-15 assessed as inhibition of bacterial growth incubated for 18 to 24 hrs by broth microdilution method; format: functional; conditions: time 18-24 hrs
[10] = tested on: Klebsiella pneumoniae; assay: Antibacterial activity against carbapenem resistant Klebsiella pneumoniae clinical isolate 19-17 assessed as inhibition of bacterial growth incubated for 18 to 24 hrs by broth microdilution method; format: functional; conditions: time 18-24 hrs
[11] = tested on: Klebsiella pneumoniae; assay: Antibacterial activity against KPC producing Klebsiella pneumoniae ATCC BAA-1705 assessed as inhibition of bacterial growth incubated for 18 to 24 hrs by broth microdilution method; format: functional; conditions: time 18-24 hrs
[12] = tested on: Pseudomonas aeruginosa; assay: Antibacterial activity against Pseudomonas aeruginosa clinical isolate 19-1 assessed as inhibition of bacterial growth incubated for 18 to 24 hrs by broth microdilution method; format: functional; conditions: time 18-24 hrs
[13] = tested on: Pseudomonas aeruginosa; assay: Antibacterial activity against carbapenem resistant Pseudomonas aeruginosa clinical isolate 19-3 assessed as inhibition of bacterial growth incubated for 18 to 24 hrs by broth microdilution method; format: functional; conditions: time 18-24 hrs
[14] = tested on: Pseudomonas aeruginosa; assay: Antibacterial activity against carbapenem resistant Pseudomonas aeruginosa clinical isolate 17-1 assessed as inhibition of bacterial growth incubated for 18 to 24 hrs by broth microdilution method; format: functional; conditions: time 18-24 hrs
[15] = tested on: Pseudomonas aeruginosa; assay: Antibacterial activity against Pseudomonas aeruginosa ATCC 27853 assessed as inhibition of bacterial growth incubated for 18 to 24 hrs by broth microdilution method; format: functional; conditions: time 18-24 hrs
[16] = tested on: Acinetobacter baumannii; assay: Antibacterial activity against carbapenem resistant Acinetobacter baumannii clinical isolate 19-8 assessed as inhibition of bacterial growth incubated for 18 to 24 hrs by broth microdilution method; format: functional; conditions: time 18-24 hrs
[17] = tested on: Acinetobacter baumannii; assay: Antibacterial activity against oxacillinase-27 producing Acinetobacter baumannii NCTC 13304 assessed as inhibition of bacterial growth incubated for 18 to 24 hrs by broth microdilution method; format: functional; conditions: time 18-24 hrs
[18] = Cytotoxicity against human HK-2 cells assessed as inhibition of cell growth incubated for 72 hrs by CCK-8 assay; format: toxicity, cell-based
[19] = Selectivity index, ratio of IC50 for cytotoxicity against human HK-2 cells to MIC for antibacterial activity against Escherichia coli ATCC BAA-2523; format: toxicity, cell-based

Row | Structure (SMILES) | MIC [1] | MIC [2] | MIC [3] | MIC [4] | MIC [5] | MIC [6] | MIC [7] | MIC [8] | MIC [9] | MIC [10] | MIC [11] | MIC [12] | MIC [13] | MIC [14] | MIC [15] | MIC [16] | MIC [17] | IC50 at 72 h [18] | selectivity ratio [19]
1 | CCCCCCC[C@@H](O)CC(=O)N[C@@H](CCN)C(=O)N[C@H](CCN)C(=O)N[C@H]1CCNC(=O)[C@H](CC(C)C)NC(=O)[C@H](CCN)NC(=O)[C@H](CCN)NC(=O)[C@H](Cc2ccccc2)NC(=O)[C@@H](CC(C)C)NC(=O)[C@H](CCN)NC1=O | 16 µg/mL (≈ 14 µM) | 8 µg/mL (≈ 6.99 µM) | 1 µg/mL (≈ 0.874 µM) | 4 µg/mL (≈ 3.5 µM) | 8 µg/mL (≈ 6.99 µM) | 32 µg/mL (≈ 28 µM) | 16 µg/mL (≈ 14 µM) | 16 µg/mL (≈ 14 µM) | 32 µg/mL (≈ 28 µM) | 64 µg/mL (≈ 55.9 µM) | 32 µg/mL (≈ 28 µM) | 2 µg/mL (≈ 1.75 µM) | 4 µg/mL (≈ 3.5 µM) | 2 µg/mL (≈ 1.75 µM) | 2 µg/mL (≈ 1.75 µM) | 16 µg/mL (≈ 14 µM) | 16 µg/mL (≈ 14 µM) | 18.5 µg/mL (≈ 16.2 µM) | 2.3
2 | CCCCCCCCCC(=O)N[C@H](CCN)C(=O)N[C@H]1CCNC(=O)[C@H]([C@@H](C)O)NC(=O)[C@H](CCN)NC(=O)[C@H](CCN)NC(=O)[C@H](CC(C)C)NC(=O)[C@@H](CC(C)C)NC(=O)[C@H](CCCN)NC1=O | > 64 µg/mL | > 64 µg/mL | 4 µg/mL (≈ 4.01 µM) | 32 µg/mL (≈ 32.1 µM) | > 64 µg/mL | > 64 µg/mL | > 64 µg/mL | > 64 µg/mL | > 64 µg/mL | > 64 µg/mL | > 64 µg/mL | > 64 µg/mL | > 64 µg/mL | > 64 µg/mL | > 64 µg/mL | > 64 µg/mL | > 64 µg/mL | 277 µg/mL (≈ 278 µM) | < 4.3
3 | CCCCCCCC(=O)N[C@H](CCN)C(=O)N[C@H]1CCNC(=O)[C@H](CC(C)C)NC(=O)[C@H](CCN)NC(=O)[C@H](CCN)NC(=O)[C@H](CC(C)C)NC(=O)[C@@H](CC(C)C)NC(=O)[C@H](CCN)NC1=O | > 64 µg/mL | > 64 µg/mL | 8 µg/mL (≈ 8.28 µM) | 64 µg/mL (≈ 66.2 µM) | 32 µg/mL (≈ 33.1 µM) | 16 µg/mL (≈ 16.6 µM) | 32 µg/mL (≈ 33.1 µM) | 2 µg/mL (≈ 2.07 µM) | 16 µg/mL (≈ 16.6 µM) | 16 µg/mL (≈ 16.6 µM) | 2 µg/mL (≈ 2.07 µM) | 8 µg/mL (≈ 8.28 µM) | 4 µg/mL (≈ 4.14 µM) | 2 µg/mL (≈ 2.07 µM) | 1 µg/mL (≈ 1.03 µM) | 16 µg/mL (≈ 16.6 µM) | 8 µg/mL (≈ 8.28 µM) | 198 µg/mL (≈ 205 µM) | 6.2
4 | CCCCCCC[C@@H](O)CC(=O)N[C@H](CCN)C(=O)N[C@H]1CCNC(=O)[C@H]([C@@H](C)O)NC(=O)[C@H](CCN)NC(=O)[C@H](CCN)NC(=O)[C@H](CC(C)C)NC(=O)[C@@H](Cc2ccccc2)NC(=O)[C@H](CCN)NC1=O ({Decanoyl(3R-OH)}-[dDab][Dab][Dab][dF]L[Dab][Dab]T; lactam 2-C) | > 64 µg/mL | > 64 µg/mL | 8 µg/mL (≈ 7.75 µM) | 32 µg/mL (≈ 31 µM) | 1 µg/mL (≈ 0.969 µM) | 4 µg/mL (≈ 3.87 µM) | 2 µg/mL (≈ 1.94 µM) | 1 µg/mL (≈ 0.969 µM) | 2 µg/mL (≈ 1.94 µM) | 4 µg/mL (≈ 3.87 µM) | 0.5 µg/mL (≈ 0.484 µM) | 0.5 µg/mL (≈ 0.484 µM) | 1 µg/mL (≈ 0.969 µM) | 0.5 µg/mL (≈ 0.484 µM) | 0.5 µg/mL (≈ 0.484 µM) | 32 µg/mL (≈ 31 µM) | 32 µg/mL (≈ 31 µM) | 125 µg/mL (≈ 121 µM) | 125
5 | CCCCCCCCCC(=O)N[C@H](CCN)C(=O)N[C@H]1CCNC(=O)[C@H]([C@@H](C)O)NC(=O)[C@H](CCN)NC(=O)[C@H](CCN)NC(=O)[C@H](CC(C)C)NC(=O)[C@@H](Cc2ccc(C)cc2)NC(=O)[C@H](CCN)NC1=O | > 64 µg/mL | 32 µg/mL (≈ 31.1 µM) | 2 µg/mL (≈ 1.94 µM) | 2 µg/mL (≈ 1.94 µM) | 1 µg/mL (≈ 0.971 µM) | 8 µg/mL (≈ 7.76 µM) | 2 µg/mL (≈ 1.94 µM) | 1 µg/mL (≈ 0.971 µM) | 4 µg/mL (≈ 3.88 µM) | 4 µg/mL (≈ 3.88 µM) | 2 µg/mL (≈ 1.94 µM) | 1 µg/mL (≈ 0.971 µM) | 1 µg/mL (≈ 0.971 µM) | 32 µg/mL (≈ 31.1 µM) | 32 µg/mL (≈ 31.1 µM) | 32 µg/mL (≈ 31.1 µM) | 16 µg/mL (≈ 15.5 µM) | 71.6 µg/mL (≈ 69.5 µM) | 71.6
